Consider five compounds from PMC5770468, “Cardiac glycoside/aglycones inhibit HIV-1 gene expression by a mechanism requiring MEK1/2-ERK1/2 signaling” (Scientific Reports, 2018).

The IC90 is the point of the concentration-response curve where the effect stands at 90%. In general, IC50 refers to the concentration that gives 50% inhibition.

Where two headings read alike, the source gives them in different places.

One assay concerns HIV-1 US RNAs. Description: FISH localization of HIV-1 US RNA in HeLa rtTA-HIV(Gag-GFP) cells. It counts as cell-based. The note with it: ~IC90s of CSs. The text has this: Figure 4 CSs suppress HIV-1 gene expression by altering viral RNA processing. […] (a,b) CSs induce oversplicing of HIV-1 RNAs (n ≥ 3, mean, s.e.m.). (a) Diagram of the primer positions (arrow heads) used for qRT-PCR. (b) Graph of the relative amount of US (black), SS (white), and MS (gray) HIV-1 RNAs in cells treated with various CSs. (c) Nuclear export of HIV-1 US RNAs in cells is altered by CSs (representative n ≥ 4). HIV-1 US RNAs were localized by FISH after treating HeLa rtTA-HIV(Gag-GFP) cells as described above but with ~IC90s of CSs. Nuclei were stained by DAPI and images captured at 630 × magnification. (d) CSs induce differential post-translational modification of SR proteins (representative n ≥ 3). SRp20, Tra2β, and tubulin were analyzed by immunoblot of HeLa rtTA-HIV-ΔMls cells treated as described above except cells of this representative blot were treated 3 d with ~IC50s of CSs. (g) Lanes were cropped and assembled from the same gel/blot per box (Supplementary Fig. S4d).
RNA was extracted from cells, reverse transcribed, and resulting cDNAs subject to qRT-PCR quantification of HIV-1 mRNAs as previously described except reactions used iTaq™ Universal SYBR® Green Supermix (Bio-Rad, #172-5120) run on a Bio-Rad CFX384 Touch™ Real-Time PCR Detection System and analyzed with CFX Manager™[9]. NKA α1, 2, and 3 subunits were detected by published primers, amplified by iTaq using the same cycling temperature and times previously described for HIV-1 US/MS cDNAs except α1, 2, and 3 annealing temperatures were 61 °C[9],[73]. All data was normalized to β-actin as internal loading control. Primers sequences for NKA α subunits were as follows: α1 forward (5′-[…] -3′), α1 reverse (5′- […] -3′), α2 forward (5′-[…]-3′), α2 reverse (5′-[…]-3′), α3 forward (5′-[…]-3′), and α3 reverse (5′-GGGCAGACTCAGACGCATC-3′). Monitoring the subcellular localization of HIV-1 genomic RNA. HeLa rtTA-HIV(Gag-GFP) cells were seeded on cover slips, treated with drug/compound, and processed for FISH to detect HIV-1 US RNAs using Stellaris™ probes (Biosearch Technologies) as previously detailed[10],[11].

In the next assay the test system is clinical strains of HIV. Description: microbe, parasite or virus in culture. It is filed as cell-based. The note with it: for IC90 / IC50: Human immunodeficiency virus 1, PBMC, 336 h; for IC90: read-out: IC90, viral growth in HIV-infected PBMCs; for IC50: read-out: IC50 (nM) HIV-infected PBMCs. As for the experimental part: PBMCs from HIV infected patients were depleted of CD8^+ T cells (Supplementary Fig. S3), activated by anti-CD3 and anti-CD28 antibodies, and treated 20 d with indicated concentrations of drug/compound. HIV particle formation was quantitated by p24^CA ELISA of cell supernatants and viability of cells were assayed by XTT. […] Graphs of viral growth (p24 protein levels) and cell viability (gray circles, adjacent y-axis) of cells treated with drug/compounds (red triangles) or DMSO (black circles) are shown. The drug 3TC and the CS digoxin (d–e) were provided for comparison. […] Dose-response curves of CS effects on HIV replication (relative Gag expression, black circles) and cell viability (gray circles) were measured on day 14.
PBMCs were then seeded to 24-well plates in the presence/absence of indicated drug/compounds (0.5 mL final) which were pre-diluted in RPMI^+++ in the same manner as described above. Every 3–4 days, ~0.25 mL of media was harvested for assays and replenished with ~0.25 mL of fresh medium with drug/compound and 20 U/mL of IL-2. HIV growth in cultures was monitored by p24^CA ELISA of cell supernatants harvested (detailed below) and the effect of compounds on cell viability were monitored by XTT assay.
To monitor HIV-1 gene expression or replication, Gag release into cell culture supernatants were assayed by ELISA using a p24^CA antigen capture assay kit (AIDS & Cancer Virus Program, NCI-Frederick, Frederick, MD USA). Media harvested from HIV clinical isolates were diluted ~10 fold (or as necessary) prior to performing this assay. For analysis of HIV-1 and SR protein expression (and phosphorylation states with calf intestinal alkaline phosphatase treatments), cells were lysed and analyzed by western blot as previously outlined. Phosphatase inhibitors (e.g. 10 mM sodium fluoride, 2 mM sodium orthovanadate) were added to solutions requiring phospho protein analyses. An anti-chicken NKA antibody (α6F, #a6F–c, Developmental Studies Hybridoma Bank, The University of Iowa, contributed by Douglas M. Fambrough, The Johns Hopkins University) was used as specified to detect NKA α1- and β1-subunits across species. […] Activation of MAPKs was determined by western blot quantitation and calculation of phospho/total protein levels. […] Images were exported as TIF files for assembly, rotation, and equal brightness/contrast adjustments in ImageJ or Microsoft Powerpoint. Some lanes were cropped and rearranged from the same blot/gel as indicated. In representative gel/blot sets, samples were electrophoresed from the same experiment as controls, resolved simultaneously on identically cast gel(s), transferred to same PVDF (by either wet electrophoretic or by Bio-Rad Trans-Blot® Turbo Transfer System), and detected at same time. Marked locations of molecular weight (MW) standards are shown on the left as a reference. […] SUnSET analysis of total cellular protein synthesis. HeLa rtTA-HIV-ΔMls cells were cultured in the presence/absence of compound and pathway inhibitor (if any) and Dox induced for ~24 h as already described, then treated with puromycin (10 μg/mL, Sigma-Aldrich, #P8833) for 30 min to label nascent proteins prior to harvest. As control, 10 µM of cycloheximide (Sigma-Aldrich, #C4849) was added to some cells prior to puromycin treatment. Cells were subsequently washed, whole cell lysates prepared, and proteins quantified by western blot using an anti-puromycin antibody (EMD Millipore, #anti-12D10) as described above. Transfection of plasmid DNA into cells. Transfection of pCMV6-HA-AKT-1 (WT, KM, or Myr) or CMV myc and with CMV tTA pA and CMV PLAP plasmids into HeLa rtTA-HIV-ΔMls cells were performed by polyethylene imine (PEI) transfection as previously described[9],[10].

Setting [1] is: p24CA ELISA, day 14, inferred near maximal IC50s.

For `C[C@@H]1O[C@@H](O[C@H]2C[C@@H](O)[C@]3(CO)[C@H]4[C@H](O)C[C@]5(C)[C@@H](C6=CC(=O)OC6)CC[C@]5(O)[C@@H]4CC[C@]3(O)C2)[C@H](O)[C@H](O)[C@H]1O` [Ouabain], the “HIV-1 US RNA subcellular localization” value with HIV-1 US RNAs is “Some residual cytoplasmic staining”.

Turning to `C[C@]12CC[C@H](O)C[C@H]1CC[C@@H]1[C@@H]2CC[C@]2(C)[C@@H](C3=CC(=O)OC3)CC[C@]12O` [Digitoxigenin], the “HIV-1 US RNA subcellular localization” value in the assay on HIV-1 US RNAs is reported as “Some residual cytoplasmic staining”. Further, in the assay on clinical strains of HIV (Day14, p24CA ELISA), the IC90 was 2 nM. Further, the IC50 in the assay on clinical strains of HIV (setting [1]) was approximately 1.1 nM.

On to `C[C@H]1O[C@@H](O[C@H]2[C@@H](O)C[C@H](O[C@H]3[C@@H](O)C[C@H](O[C@H]4CC[C@@]5(C)[C@H](CC[C@@H]6[C@@H]5CC[C@]5(C)[C@@H](C7=CC(=O)OC7)CC[C@]65O)C4)O[C@@H]3C)O[C@@H]2C)C[C@H](O)[C@@H]1O` [Digitoxin], for which the “HIV-1 US RNA subcellular localization” value with HIV-1 US RNAs is “Some residual cytoplasmic staining”. In the assay on clinical strains of HIV, the “concentration to inhibit viral replication in HIV-infected PBMCs, fold lower than serum concentration in patients treated for heart conditions” value is recorded as 15–26 fold. In the assay on clinical strains of HIV (Day14, p24CA ELISA), the IC90 was determined as 7.5 nM. In the assay with clinical strains of HIV (setting [1]), the IC50 is approximately 1.3 nM.

With `C[C@]12CC[C@H](O)C[C@H]1CC[C@@H]1[C@@H]2C[C@@H](O)[C@]2(C)[C@@H](C3=CC(=O)OC3)CC[C@]12O` [Digoxigenin], the “HIV-1 US RNA subcellular localization” value with HIV-1 US RNAs is recorded as “almost exclusively within the nucleus”.

Consider `C[C@H]1O[C@@H](O[C@H]2[C@@H](O)C[C@H](O[C@H]3[C@@H](O)C[C@H](O[C@H]4CC[C@@]5(C)[C@H](CC[C@@H]6[C@@H]5C[C@@H](O)[C@]5(C)[C@@H](C7=CC(=O)OC7)CC[C@]65O)C4)O[C@@H]3C)O[C@@H]2C)C[C@H](O)[C@@H]1O` [Digoxin], for which the “HIV-1 US RNA subcellular localization” value in the assay on HIV-1 US RNAs is given as “almost exclusively within the nucleus”. In the assay with clinical strains of HIV, the IC50 was approximately 1.1 nM and the IC90 is 2 nM.
